Data as given in US9067974B2, “Polymyxin derivatives and uses thereof” (priority 2006, dated 2015).

Legend:
E. coli IH3080 (K1:O18) = test: Well diffusion growth inhibition on LB agar plates (direct antibacterial activity); type: cell-based, Escherichia coli
Method: Peptides synthesized in Example 1, all carrying at least two (2) but not more than three (3) positive charges, were studied for their ability to inhibit the growth of E. coli. This was tested employing LB agar (LB Agar Lennox, Difco, BD, Sparks, Md., U.S.A) plates. The indicator organism E. coli IH3080 (K1:O18) was an encapsulated strain originally isolated from a neonate suffering from meningitis (Vaara et al. 1984) and obtained from National Public Health Institute, Helsinki, Finland.
(§1) From an overnight-grown culture of IH3080 on LB agar, a suspension of approx. 10^8 cells/ml was prepared in 0.9% NaCl. Aliquots of this suspension were then pipetted on the agar plates and the plates were gently shaken to spread the suspension evenly on the entire surface of the plate. Thereafter, the unabsorbed part of the suspension was removed by using a Pasteur pipette. After the surface had dried, small wells (diameter, 2 mm) were drilled on the plates (five wells per plate) by using a sterile sharp-edged narrow metal tube, single-use pipette tip, and vacuum suction. […] Controls included 0.9% NaCl solution without the compound to be tested. The plates were then incubated for 18 h at 37° C. whereafter the diameters of growth inhibition zones around each well were measured; the diameter of the well itself was not reduced. Finally, the diameters were converted to surface areas of growth inhibition (in square mm).

E. coli IH3080 = test: Sensitization to rifampin: well diffusion growth inhibition on LB plates containing rifampin; type: cell-based, Escherichia coli
Method: as §1

[1] = system: Acinetobacter baumannii ATCC 19606; test: Well diffusion growth inhibition on LB agar plates (direct antibacterial activity); type: cell-based; settings: A. baumannii ATCC 19606
Method: (§2) From an overnight-grown culture of IH3080 on LB agar, a suspension of approx. 10^8 cells/ml was prepared in 0.9% NaCl. Aliquots of this suspension were then pipetted on the agar plates and the plates were gently shaken to spread the suspension evenly on the entire surface of the plate. Thereafter, the unabsorbed part of the suspension was removed by using a Pasteur pipette. After the surface had dried, small wells (diameter, 2 mm) were drilled on the plates (five wells per plate) by using a sterile sharp-edged narrow metal tube, single-use pipette tip, and vacuum suction. Samples (4 μl and 10 μl) of the peptide solution in 0.9% NaCl (at concentrations of 1 μg/ml and 0.1 μg/ml) were then pipetted to the wells and the sample fluids were allowed to absorb. Controls included 0.9% NaCl solution without the compound to be tested. The plates were then incubated for 18 h at 37° C. whereafter the diameters of growth inhibition zones around each well were measured; the diameter of the well itself was not reduced. Finally, the diameters were converted to surface areas of growth inhibition (in square mm).
(§3) Direct antibacterial activity of twelve NAB compounds against Acinetobacter baumannii ATCC 19606 and Pseudomonas aeruginosa ATCC 27853 was tested by using the susceptibility determination method described in Example 2. Five compounds (NAB7062, NAB734, NAB737, NAB739, and NAB740) had notable activity against A. baumannii. […] The antibacterial activity of NAB739 and NAB740 were as strong as or even stronger than that of polymyxin B.

[2] = system: Pseudomonas aeruginosa ATCC 27853; test: as above; type: cell-based; settings: Ps. aeruginosa ATCC 27853
Method: as §2, §3

A. baumannii ATCC 19606 = test: Sensitization to rifampin: well diffusion growth inhibition on LB plates containing rifampin; type: cell-based, Acinetobacter baumannii; settings: 4 μg of compound
[3] = system: Ps. aeruginosa ATCC 27853; test: as above; type: cell-based, Pseudomonas aeruginosa; settings: 4 μg of compound
[4] = 4 μg of compound, rifampin 0 μg/ml
[5] = 4 μg of compound, rifampin 0.1 μg/ml
[6] = 4 μg of compound, rifampin 1.0 μg/ml

Row | Compound | Antibacterial activity (growth inhibition area around a well) (E. coli IH3080 (K1:O18); 4 μg of compound per well) | Antibacterial activity (growth inhibition area around a well) (E. coli IH3080 (K1:O18); 10 μg of compound per well) | Antibacterial activity in the presence of rifampin (growth inhibition area around a well) (E. coli IH3080; [4]) | Antibacterial activity in the presence of rifampin (growth inhibition area around a well) (E. coli IH3080; [5]) | Antibacterial activity in the presence of rifampin (growth inhibition area around a well) (E. coli IH3080; [6]) | further results
1 | Polymyxin B heptapeptide [reference compound] | 0 square millimeters | 0 square millimeters | 0 square millimeters | 0 square millimeters | 38 square millimeters | –
2 | Polymyxin B nonapeptide [reference compound] | 0 square millimeters | 0 square millimeters | 0 square millimeters | 20 square millimeters | 113 square millimeters | Antibacterial activity (growth inhibition area around a well) ([1]; 4 μg per well): 0 square millimeters; Antibacterial activity (growth inhibition area around a well) ([1]; 10 μg per well): 0 square millimeters; Antibacterial activity (growth inhibition area around a well) ([2]; 4 μg per well): 113 square millimeters; Antibacterial activity (growth inhibition area around a well) ([2]; 10 μg per well): 177 square millimeters; Antibacterial activity in the presence of rifampin (growth inhibition area around a well) (A. baumannii ATCC 19606; rifampin 0 μg/ml): 0 square millimeters; Antibacterial activity in the presence of rifampin (growth inhibition area around a well) (A. baumannii ATCC 19606; rifampin 0.1 μg/ml): 133 square millimeters; Antibacterial activity in the presence of rifampin (growth inhibition area around a well) (A. baumannii ATCC 19606; rifampin 0.3 μg/ml): 154 square millimeters; Antibacterial activity in the presence of rifampin (growth inhibition area around a well) ([3]; rifampin 0 μg/ml): 113 square millimeters; Antibacterial activity in the presence of rifampin (growth inhibition area around a well) ([3]; rifampin 0.1 μg/ml): 113 square millimeters; Antibacterial activity in the presence of rifampin (growth inhibition area around a well) ([3]; rifampin 0.3 μg/ml): 154 square millimeters
3 | MHA-Dab-Thr-Dab-cy[Dab-Dab-DPhe-Leu-Abu-Abu-Thr-] [NAB 721] | 0 square millimeters | 0 square millimeters | 0 square millimeters | 13 square millimeters | 28 square millimeters | –
4 | OA-Thr-Abu-cy[Dab-Abu-DPhe-Leu-Dab-Dab-Thr-] [NAB 710] | 0 square millimeters | 7 square millimeters | 0 square millimeters | 7 square millimeters | 13 square millimeters | –
5 | OA-Thr-Dab-cy[Dab-Abu-DPhe-Leu-Dab-Dab-Thr-] [NAB 715] | 0 square millimeters | 0 square millimeters | 0 square millimeters | 0 square millimeters | 33 square millimeters | –
6 | Deacylcolistin [reference compound] | 79 square millimeters | 95 square millimeters | 79 square millimeters | 87 square millimeters | 127 square millimeters | –
7 | MHA-Thr-Abu-cy[Dab-Dab-DPhe-Leu-Dab-Dab-Thr-] [NAB 706] | 5 square millimeters | 7 square millimeters | 5 square millimeters | 79 square millimeters | 133 square millimeters | –
8 | OA-Thr-Abu-cy[Dab-Dab-DPhe-Leu-Dab-Abu-Thr-] [NAB 709] | 0 square millimeters | 0 square millimeters | 0 square millimeters | 0 square millimeters | 13 square millimeters | –
9 | OA-Abu-cy[Dab-Dab-DPhe-Leu-Dab-Dab-Thr-] [NAB 713] | 0 square millimeters | 0 square millimeters | 0 square millimeters | 20 square millimeters | 38 square millimeters | –
10 | OA-Thr-Abu-cy[Dab-Lys-DPhe-Leu-Dab-Dab-Thr-] [NAB 731] | 0 square millimeters | 0 square millimeters | 0 square millimeters | 0 square millimeters | 5 square millimeters | Antibacterial activity in the presence of rifampin (growth inhibition area around a well) (E. coli IH3080; 10 μg of compound, rifampin 1.0 μg/ml): 22 square millimeters
11 | OA-DAla-DAla-cy[Dab-Dab-DPhe-Leu-Dab-Dab-Thr-] [NAB 733] | 0 square millimeters | 0 square millimeters | 0 square millimeters | 95 square millimeters | 113 square millimeters | –
12 | MHA-Abu-Thr-Abu-cy[Dab-Dab-DPhe-Leu-Dab-Dab-Thr-] [NAB 707] | 5 square millimeters | 7 square millimeters | 5 square millimeters | 87 square millimeters | 113 square millimeters | –
13 | CO[C@H]1/C=C/O[C@@]2(C)Oc3c(C)c(O)c4c(O)c(c(/C=N/N5CCN(C)CC5)c(O)c4c3C2=O)NC(=O)/C(C)=C\C=C\[C@H](C)[C@H](O)[C@@H](C)[C@@H](O)[C@@H](C)[C@H](OC(C)=O)[C@@H]1C [rifampin, reference compound] | – | – | – | – | – | Concentration of rifampin needed for the inhibitory effect in the absence of the compounds tested (E. coli IH3080; LB plates): 10 µg/mL
14 | Deacylpolymyxin B [reference compound] | 57 square millimeters | 113 square millimeters | 57 square millimeters | 79 square millimeters | 127 square millimeters | –
